This passage reports IC50 results from US8188102B2, “Amide derivative for inhibiting the growth of cancer cells” (Hanmi Holdings Co., Ltd., priority 2007, dated 2012).

Experiment [1] relates to A431 skin cancer cell line. Briefly: Cancer cell growth inhibition, A431 (SRB). The settings on record: Homo sapiens, A-431, 72 h, read-out: ID50 (nM) A431.
For experiment [2], the system named is SK-Br3 breast cancer cell line. The experiment can be described thus: Cancer cell growth inhibition, SK-Br3 (SRB). The settings on record: Homo sapiens, SK-BR-3, 72 h, read-out: ID50 (nM) SK-Br3.

Each structure is given as a SMILES string.

Take `C=CC(=O)N1CCC(Oc2cc3c(Nc4ccc(O)cc4Cl)ncnc3cc2OC)CC1` [Example 52, 1-(4-(4-(2-chloro-4-hydroxyphenylamino)-7-methoxyquinazolin-6-yloxy)piperidin-1-yl)pro-2-pen-1-one]: the IC50 in experiment [1] stood at 176 nM; in experiment [2], 30 nM.
Take `C=CC(=O)N1CCC(Oc2cc3c(Nc4ccc(Cl)cc4O)ncnc3cc2OC)CC1` [Example 53, 1-(4-(4-(4-chloro-2-hydroxyphenylamino)-7-methoxyquinazolin-6-yloxy)piperidin-1-yl)pro-2-pen-1-one]: the values for the IC50 in experiment [1] and in experiment [2] were 32 nM and 21 nM, respectively.
For `C=CC(=O)N1CCC(Oc2cc3c(Nc4ccc(OCc5cccc(F)c5)c(Cl)c4)ncnc3cc2OC)CC1` [Example 54, 1-(4-(4-(3-chloro-4-(3-fluorobenzyloxy)phenylamino)-7-methoxyquinazolin-6-yloxy)piperidin-1-yl)pro-2-pen-1-one], in that order: 10 nM and 2 nM.
On the same counts, the results for `C=CC(=O)N1CCC(Oc2cc3c(Nc4cccc(C#N)c4)ncnc3cc2OC)CC1` [Example 56, 3-(6-(1-acryloylpiperidin-4-yloxy)-7-methoxyquinazolin-4-ylamino)benzonitrile] are 3.7 nM and 0.7 nM.
For `C=CC(=O)N1CCC(Oc2cc3c(Nc4cccc(Cl)c4OC)ncnc3cc2OC)CC1` [Example 59, 1-(4-(4-(3-chloro-2-methoxyphenylamino)-7-methoxyquinazolin-6-yloxy)piperidin-1-yl)pro-2-pen-1-one], the IC50 in experiment [1] was 3 nM; in experiment [2], 9 nM.
For the compound `C=CC(=O)N1CCC(Oc2cc3c(Nc4ccc(Cl)c(C)c4)ncnc3cc2OC)CC1` [Example 60, 1-(4-(4-(4-chloro-3-methylphenylamino)-7-methoxyquinazolin-6-yloxy)piperidin-1-yl)pro-2-pen-1-one], the IC50 in experiment [1] was 93 nM; in experiment [2], 261 nM.
For `C=CC(=O)N1CCC(Oc2cc3c(Nc4ccc(Br)c(F)c4)ncnc3cc2OC)CC1` [Example 62, 1-(4-(4-(4-bromo-3-fluorophenylamino)-7-methoxyquinazolin-6-yloxy)piperidin-1-yl)pro-2-pen-1-one], in that order: 7 nM and 6 nM.
As for `C=CC(=O)N1CCC(Oc2cc3c(Nc4cccc(Cl)c4C)ncnc3cc2OC)CC1` [Example 63, 1-(4-(4-(3-chloro-2-methylphenylamino)-7-methoxyquinazolin-6-yloxy)piperidin-1-yl)pro-2-pen-1-one], the IC50 was determined as 9 nM in experiment [1] and 1 nM in experiment [2].
With `C=CC(=O)N1CCC(Oc2cc3c(Nc4cccc(N(C)C)c4)ncnc3cc2OC)CC1` [Example 64, 1-(4-(4-(3-(dimethylamino)phenylamino)-7-methoxyquinazolin-6-yloxy)piperidin-1-yl)pro-2-pen-1-one], the IC50 stood at 142 nM in experiment [1] and 11 nM in experiment [2].
On the same counts, the results for `C=CC(=O)N1CCC(Oc2cc3c(Nc4cccc(C(F)(F)F)c4F)ncnc3cc2OC)CC1` [Example 65, 1-(4-(4-(2-fluoro-3-(trifluoromethyl)phenylamino)-7-methoxyquinazolin-6-yloxy)piperidin-1-yl)pro-2-pen-1-one] are 11 nM and 15 nM.
For `C=CC(=O)N1CCC(Oc2cc3c(Nc4ccc(F)c(C#N)c4)ncnc3cc2OC)CC1` [Example 66, 5-(6-(1-acryloylpiperidin-4-yloxy)-7-methoxyquinazolin-4-ylamino)-2-fluorobenzonitrile], in that order: 8 nM and 1 nM.
For `C=CC(=O)N1CCC(Oc2cc3c(Nc4ccc(Cl)c(C#N)c4)ncnc3cc2OC)CC1` [Example 67, 5-(6-(1-acryloylpiperidin-4-yloxy)-7-methoxyquinazolin-4-ylamino)-2-chlorobenzonitrile], in that order: 35 nM and 10 nM.
As to `C=CC(=O)N1CCC(Oc2cc3c(Nc4cccc(SC)c4)ncnc3cc2OC)CC1` [Example 68, 1-(4-(7-methoxy-4-(3-(methylthio)phenylamino)quinazolin-6-yloxy)piperidin-1-yl)pro-2-pen-1-one], the IC50 in experiment [1] came to 305 nM; in experiment [2] it was 10 nM.
`C=CC(=O)N1CCC(Oc2cc3c(Nc4ccccc4Cl)ncnc3cc2OC)CC1` [Example 69, 1-(4-(4-(2-chlorophenylamino)-7-methoxyquinazolin-6-yloxy)piperidin-1-yl)pro-2-pen-1-one]: the IC50 in experiment [1] amounted to 65 nM; in experiment [2] it was 1.7 nM.
Regarding `C=CC(=O)N1CCC(Oc2cc3c(Nc4ccc(Cl)cc4)ncnc3cc2OC)CC1` [Example 70, 1-(4-(4-(4-chlorophenylamino)-7-methoxyquinazolin-6-yloxy)piperidin-1-yl)pro-2-pen-1-one], the IC50 in experiment [1] came to 4.6 nM; in experiment [2] it was 2.1 nM.
On the same counts, the results for `C=CC(=O)N1CCC(Oc2cc3c(NCc4cccc(Cl)c4)ncnc3cc2OC)CC1` [Example 72, 1-(4-(4-(3-chlorobenzylamino)-7-methoxyquinazolin-6-yloxy)piperidin-1-yl)pro-2-pen-1-one] are 61 nM and 20 nM.
`C=CC(=O)N1CCC(Oc2cc3c(Nc4cccc([N+](=O)[O-])c4)ncnc3cc2OC)CC1` [Example 74, 1-(4-(7-methoxy-4-(3-nitrophenylamino)quinazolin-6-yloxy)piperidin-1-yl)pro-2-pen-1-one]: the IC50 in experiment [1] is 11 nM; in experiment [2], 1 nM.
For the compound `C=CC(=O)Nc1cccc(Nc2ncnc3cc(OC)c(OC4CCN(C(=O)C=C)CC4)cc23)c1` [Example 75, N-(3-(6-(1-acryloylpiperidin-4-yloxy)-7-methoxyquinazolin-4-ylamino)phenyl)acrylamide], the figures for the IC50 in experiment [1] and in experiment [2] were 400 nM and 50 nM, respectively.
Consider `C=CC(=O)N1CCC(Oc2cc3c(Nc4cccc(S)c4)ncnc3cc2OC)CC1` [Example 76, 1-(4-(4-(3-mercaptophenylamino)-7-methoxyquinazolin-6-yloxy)piperidin-1-yl)pro-2-pen-1-one], for which the values for the IC50 in experiment [1] and in experiment [2] were 300 nM and 100 nM, respectively.
Consider `C=CC(=O)N1CCC(Oc2cc3c(Nc4cccc(CCl)c4)ncnc3cc2OC)CC1` [Example 77, 1-(4-(4-(3-(chloromethyl)phenylamino)-7-methoxyquinazolin-6-yloxy)piperidin-1-yl)pro-2-pen-1-one], for which the figures for the IC50 in experiment [1] and in experiment [2] were 26 nM and 7 nM, respectively.
For the compound `C=CC(=O)N1CCC(Oc2cc3c(Nc4ccc(O)c(Cl)c4)ncnc3cc2OC)CC1` [Example 78, 1-(4-(4-(3-chloro-4-hydroxyphenylamino)-7-methoxyquinazolin-6-yloxy)piperidin-1-yl)pro-2-pen-1-one], the IC50 in experiment [1] was 109 nM; in experiment [2] it was 65 nM.
Consider `C=CC(=O)N1CCC(Oc2cc3c(Nc4ccc(O)c(F)c4)ncnc3cc2OC)CC1` [Example 79, 1-(4-(4-(3-fluoro-4-hydroxyphenylamino)-7-methoxyquinazolin-6-yloxy)piperidin-1-yl)prop-2-en-1-one], for which the figures for the IC50 in experiment [1] and in experiment [2] were 129 nM and 37 nM, respectively.
With `CC#CC(=O)N1CCC(Oc2cc3c(Nc4ccc(F)c(Cl)c4F)ncnc3cc2OC)CC1` [Example 80, 1-(4-(4-(3-chloro-2,4-difluorophenylamino)-7-methoxyquinazolin-6-yloxy)piperidin-1-yl)but-2-yn-1-one], the IC50 was found to be 190 nM in experiment [1] and 268 nM in experiment [2].
Regarding `COc1cc2ncnc(Nc3ccc(F)c(Cl)c3F)c2cc1OC1CCN(C(=O)C=C(C)C)CC1` [Example 81, 1-(4-(4-(3-chloro-2,4-difluorophenylamino)-7-methoxyquinazolin-6-yloxy)piperidin-1-yl)-3-methylbut-2-en-1-one], the IC50 is 38 nM in experiment [1] and 141 nM in experiment [2].
On to `CNC(=O)/C=C/C(=O)N1CCC(Oc2cc3c(Nc4ccc(F)c(Cl)c4F)ncnc3cc2OC)CC1` [Example 82, (E)-4-(4-(4-(3-chloro-2,4-difluorophenylamino)-7-methoxyquinazolin-6-yloxy)piperidin-1-yl)-N-methyl-4-oxobut-2-enamide], for which the results for the IC50 in experiment [1] and in experiment [2] were 48 nM and 134 nM, respectively.
`COC(=O)/C=C\C(=O)N1CCC(Oc2cc3c(Nc4ccc(F)c(Cl)c4F)ncnc3cc2OC)CC1` [Example 83, (Z)-methyl 4-(4-(4-(3-chloro-2,4-difluorophenylamino)-7-methoxyquinazolin-6-yloxy)piperidin-1-yl)-4-oxobut-2-enoate]: the results for the IC50 in experiment [1] and in experiment [2] were 9 nM and 23 nM, respectively.
Take `COC(=O)/C=C\C(=O)N1CCC(Oc2cc3c(Nc4ccc(Cl)c(Cl)c4F)ncnc3cc2OC)CC1` [Example 84, (Z)-methyl 4-(4-(4-(3,4-dichloro-2-fluorophenylamino)-7-methoxyquinazolin-6-yloxy)piperidin-1-yl)-4-oxobut-2-enoate]: the IC50 in experiment [1] was 8 nM; in experiment [2], 21 nM.
For `COc1cc2ncnc(Nc3ccc(F)c(Cl)c3F)c2cc1OC1CCN(C(=O)/C=C\C(=O)O)CC1` [Example 85, (Z)-4-(4-(4-(3-chloro-2,4-difluorophenylamino)-7-methoxyquinazolin-6-yloxy)piperidin-1-yl)-4-oxobut-2-enoic acid], in that order: 41 nM and 395 nM.
As to `COc1cc2ncnc(Nc3ccc(Cl)c(Cl)c3F)c2cc1OC1CCN(C(=O)/C=C\C(=O)O)CC1` [Example 86, (Z)-4-(4-(4-(3,4-dichloro-2-fluorophenylamino)-7-methoxyquinazolin-6-yloxy)piperidin-1-yl)-4-oxobut-2-enoic acid], the results for the IC50 in experiment [1] and in experiment [2] were 322 nM and > 1000 nM, respectively.
For `COc1cc2ncnc(Nc3ccc(Cl)c(Cl)c3F)c2cc1OC1CCN(C(=O)/C=C/C(=O)O)CC1` [Example 87, (E)-4-(4-(4-(3,4-dichloro-2-fluorophenylamino)-7-methoxyquinazolin-6-yloxy)piperidin-1-yl)-4-oxobut-2-enoic acid], in that order: 516 nM and 469 nM.
